Source: ChEMBL document CHEMBL4507319 (2021)

How the values were obtained:
Conditions in all cases: Compound concentration 1000.0 nM
[1] = molecular target: Bone morphogenetic protein receptor type-1B (Homo sapiens) (UniProt O00238)
[2] = molecular target: Calcium/calmodulin-dependent protein kinase type 1G (Homo sapiens) (UniProt Q96NX5)
[3] = test system: Epidermal growth factor receptor (Homo sapiens), P00533 [L861Q]
[4] = molecular target: T1, Tyrosine-protein kinase JAK3 (Homo sapiens) (UniProt P52333)
T1 sequence (whole entry): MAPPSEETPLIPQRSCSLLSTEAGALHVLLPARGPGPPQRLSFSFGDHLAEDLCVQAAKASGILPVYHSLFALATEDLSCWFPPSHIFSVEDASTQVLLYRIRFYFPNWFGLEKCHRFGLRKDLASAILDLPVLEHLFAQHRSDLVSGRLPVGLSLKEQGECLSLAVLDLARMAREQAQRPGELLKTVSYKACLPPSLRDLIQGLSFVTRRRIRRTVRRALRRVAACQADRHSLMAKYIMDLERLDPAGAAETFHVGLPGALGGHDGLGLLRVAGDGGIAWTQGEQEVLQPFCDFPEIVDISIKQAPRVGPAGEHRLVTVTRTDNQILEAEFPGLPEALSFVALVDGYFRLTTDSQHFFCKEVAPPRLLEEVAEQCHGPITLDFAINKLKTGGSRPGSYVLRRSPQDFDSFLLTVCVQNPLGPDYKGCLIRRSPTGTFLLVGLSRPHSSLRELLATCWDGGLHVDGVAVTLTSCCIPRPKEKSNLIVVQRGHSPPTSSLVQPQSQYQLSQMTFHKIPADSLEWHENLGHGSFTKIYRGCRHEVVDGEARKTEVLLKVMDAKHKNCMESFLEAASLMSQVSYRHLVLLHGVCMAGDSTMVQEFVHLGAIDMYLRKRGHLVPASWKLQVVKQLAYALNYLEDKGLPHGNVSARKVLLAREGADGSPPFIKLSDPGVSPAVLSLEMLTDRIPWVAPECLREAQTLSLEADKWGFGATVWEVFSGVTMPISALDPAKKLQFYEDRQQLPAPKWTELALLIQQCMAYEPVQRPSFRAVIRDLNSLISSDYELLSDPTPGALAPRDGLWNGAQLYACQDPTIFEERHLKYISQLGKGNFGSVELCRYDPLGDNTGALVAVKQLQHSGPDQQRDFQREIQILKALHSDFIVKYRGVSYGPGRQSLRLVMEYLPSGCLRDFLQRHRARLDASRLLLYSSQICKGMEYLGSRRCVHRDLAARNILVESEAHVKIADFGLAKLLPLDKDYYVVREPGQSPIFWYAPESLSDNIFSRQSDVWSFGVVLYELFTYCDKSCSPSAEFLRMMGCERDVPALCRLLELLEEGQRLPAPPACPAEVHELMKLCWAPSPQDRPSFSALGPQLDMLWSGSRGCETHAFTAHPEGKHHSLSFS

[5] = test system: Mast/stem cell growth factor receptor Kit (Homo sapiens), P10721 [V559D]
[6] = molecular target: Serine/threonine-protein kinase MRCK alpha (Homo sapiens) (UniProt Q5VT25)
[7] = molecular target: Serine/threonine-protein kinase 26 (Homo sapiens) (UniProt Q9P289)
[8] = molecular target: T2, Serine/threonine-protein kinase Nek1 (Homo sapiens) (UniProt Q96PY6)
T2 sequence (whole entry): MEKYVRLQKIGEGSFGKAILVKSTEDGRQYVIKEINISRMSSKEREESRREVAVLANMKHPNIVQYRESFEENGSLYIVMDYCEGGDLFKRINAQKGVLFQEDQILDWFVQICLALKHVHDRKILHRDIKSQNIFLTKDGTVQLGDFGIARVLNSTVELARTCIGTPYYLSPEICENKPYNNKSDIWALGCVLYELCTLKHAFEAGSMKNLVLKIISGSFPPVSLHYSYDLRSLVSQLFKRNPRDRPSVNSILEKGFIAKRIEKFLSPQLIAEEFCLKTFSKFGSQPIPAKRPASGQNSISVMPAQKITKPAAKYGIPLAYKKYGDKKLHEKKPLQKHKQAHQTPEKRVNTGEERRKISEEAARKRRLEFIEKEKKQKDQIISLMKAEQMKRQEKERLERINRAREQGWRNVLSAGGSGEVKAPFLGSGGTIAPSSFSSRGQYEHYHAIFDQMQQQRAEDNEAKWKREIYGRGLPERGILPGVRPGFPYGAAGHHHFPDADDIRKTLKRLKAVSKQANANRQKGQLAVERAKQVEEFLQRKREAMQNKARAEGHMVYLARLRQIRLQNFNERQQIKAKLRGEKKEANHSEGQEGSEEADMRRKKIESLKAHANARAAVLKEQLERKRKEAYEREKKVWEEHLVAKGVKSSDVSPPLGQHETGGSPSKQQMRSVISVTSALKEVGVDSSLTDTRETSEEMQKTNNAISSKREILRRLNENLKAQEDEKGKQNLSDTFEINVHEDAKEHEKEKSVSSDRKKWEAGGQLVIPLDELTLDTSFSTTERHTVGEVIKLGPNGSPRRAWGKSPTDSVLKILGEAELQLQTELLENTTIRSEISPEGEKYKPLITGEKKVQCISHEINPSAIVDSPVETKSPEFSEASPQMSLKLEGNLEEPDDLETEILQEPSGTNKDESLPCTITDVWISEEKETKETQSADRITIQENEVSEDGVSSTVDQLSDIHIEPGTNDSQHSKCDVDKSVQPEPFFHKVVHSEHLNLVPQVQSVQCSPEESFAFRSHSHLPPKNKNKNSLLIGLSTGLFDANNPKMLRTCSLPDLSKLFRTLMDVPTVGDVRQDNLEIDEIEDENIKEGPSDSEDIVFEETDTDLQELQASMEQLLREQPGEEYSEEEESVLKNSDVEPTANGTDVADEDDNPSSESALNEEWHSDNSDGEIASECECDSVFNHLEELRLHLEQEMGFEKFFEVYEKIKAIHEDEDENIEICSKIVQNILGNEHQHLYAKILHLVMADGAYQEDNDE

[9] = molecular target: Serine/threonine-protein kinase WNK4 (Homo sapiens) (UniProt Q96J92)
[10] = molecular target: Tyrosine-protein kinase Yes (Homo sapiens) (UniProt P07947)
[11] = molecular target: Mitogen-activated protein kinase kinase kinase 19 (Homo sapiens) (UniProt Q56UN5)
Sequence of Mitogen-activated protein kinase kinase kinase 19 (Homo sapiens) (Q56UN5 whole entry): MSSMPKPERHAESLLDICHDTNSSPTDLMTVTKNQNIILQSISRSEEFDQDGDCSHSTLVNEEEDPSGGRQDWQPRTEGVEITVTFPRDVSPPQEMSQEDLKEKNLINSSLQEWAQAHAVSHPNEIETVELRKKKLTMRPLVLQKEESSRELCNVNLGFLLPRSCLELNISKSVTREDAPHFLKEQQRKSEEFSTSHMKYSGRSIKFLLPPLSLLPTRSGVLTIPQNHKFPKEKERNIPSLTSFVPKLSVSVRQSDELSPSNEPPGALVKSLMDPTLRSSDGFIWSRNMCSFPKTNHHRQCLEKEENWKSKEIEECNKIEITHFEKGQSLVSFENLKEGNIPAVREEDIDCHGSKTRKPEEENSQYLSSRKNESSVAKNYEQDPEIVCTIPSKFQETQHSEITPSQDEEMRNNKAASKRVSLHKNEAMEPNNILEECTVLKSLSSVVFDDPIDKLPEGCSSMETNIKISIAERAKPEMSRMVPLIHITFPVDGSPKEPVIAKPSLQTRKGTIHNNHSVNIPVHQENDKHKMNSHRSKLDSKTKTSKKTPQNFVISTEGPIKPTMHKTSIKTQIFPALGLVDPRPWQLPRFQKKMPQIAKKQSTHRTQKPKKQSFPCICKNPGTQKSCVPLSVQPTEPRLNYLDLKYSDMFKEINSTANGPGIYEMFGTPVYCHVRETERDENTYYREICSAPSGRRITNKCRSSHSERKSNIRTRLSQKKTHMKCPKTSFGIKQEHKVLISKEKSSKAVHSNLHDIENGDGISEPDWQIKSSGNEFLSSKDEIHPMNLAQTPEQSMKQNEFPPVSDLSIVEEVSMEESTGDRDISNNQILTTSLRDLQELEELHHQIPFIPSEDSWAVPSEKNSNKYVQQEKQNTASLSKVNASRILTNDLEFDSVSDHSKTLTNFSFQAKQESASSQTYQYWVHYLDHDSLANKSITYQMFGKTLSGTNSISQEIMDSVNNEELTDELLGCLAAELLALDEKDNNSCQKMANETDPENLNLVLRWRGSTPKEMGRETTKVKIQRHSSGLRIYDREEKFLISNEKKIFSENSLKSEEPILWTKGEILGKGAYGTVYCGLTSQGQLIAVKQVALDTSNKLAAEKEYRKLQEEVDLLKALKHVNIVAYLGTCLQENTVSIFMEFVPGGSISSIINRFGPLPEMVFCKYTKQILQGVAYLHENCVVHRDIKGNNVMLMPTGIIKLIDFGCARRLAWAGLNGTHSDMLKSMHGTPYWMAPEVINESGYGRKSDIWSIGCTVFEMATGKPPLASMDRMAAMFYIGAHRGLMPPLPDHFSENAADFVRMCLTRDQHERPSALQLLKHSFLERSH

Sequence of Tyrosine-protein kinase Yes (Homo sapiens) (P07947 2-543 limits assumed): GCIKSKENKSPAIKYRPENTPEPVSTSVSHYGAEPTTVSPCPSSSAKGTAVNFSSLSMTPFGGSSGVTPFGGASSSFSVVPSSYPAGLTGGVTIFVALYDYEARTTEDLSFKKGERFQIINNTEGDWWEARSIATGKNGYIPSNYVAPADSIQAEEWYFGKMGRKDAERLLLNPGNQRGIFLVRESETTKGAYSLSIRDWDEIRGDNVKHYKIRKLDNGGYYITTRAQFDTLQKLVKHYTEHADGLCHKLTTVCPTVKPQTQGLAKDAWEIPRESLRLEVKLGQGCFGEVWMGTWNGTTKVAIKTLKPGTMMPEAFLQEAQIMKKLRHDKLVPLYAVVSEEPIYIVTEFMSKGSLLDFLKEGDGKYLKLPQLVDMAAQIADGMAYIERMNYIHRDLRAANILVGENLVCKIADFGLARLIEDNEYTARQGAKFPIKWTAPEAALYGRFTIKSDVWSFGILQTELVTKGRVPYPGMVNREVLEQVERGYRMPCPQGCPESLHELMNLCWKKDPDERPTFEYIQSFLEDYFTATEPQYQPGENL
Sequence of Bone morphogenetic protein receptor type-1B (Homo sapiens) (O00238 whole entry): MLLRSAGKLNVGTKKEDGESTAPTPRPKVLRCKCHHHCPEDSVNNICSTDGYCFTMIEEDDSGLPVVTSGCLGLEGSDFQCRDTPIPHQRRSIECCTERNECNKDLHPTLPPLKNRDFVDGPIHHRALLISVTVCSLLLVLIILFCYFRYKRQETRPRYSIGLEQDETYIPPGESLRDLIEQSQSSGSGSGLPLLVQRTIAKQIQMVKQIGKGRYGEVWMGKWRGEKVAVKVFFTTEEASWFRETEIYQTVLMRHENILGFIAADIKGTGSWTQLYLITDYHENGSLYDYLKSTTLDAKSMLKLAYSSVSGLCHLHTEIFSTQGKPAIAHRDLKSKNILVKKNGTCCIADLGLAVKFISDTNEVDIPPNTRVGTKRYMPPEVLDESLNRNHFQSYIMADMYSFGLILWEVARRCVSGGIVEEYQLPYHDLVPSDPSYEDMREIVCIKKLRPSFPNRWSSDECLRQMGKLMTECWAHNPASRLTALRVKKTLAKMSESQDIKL
Sequence of Serine/threonine-protein kinase WNK4 (Homo sapiens) (Q96J92 whole entry): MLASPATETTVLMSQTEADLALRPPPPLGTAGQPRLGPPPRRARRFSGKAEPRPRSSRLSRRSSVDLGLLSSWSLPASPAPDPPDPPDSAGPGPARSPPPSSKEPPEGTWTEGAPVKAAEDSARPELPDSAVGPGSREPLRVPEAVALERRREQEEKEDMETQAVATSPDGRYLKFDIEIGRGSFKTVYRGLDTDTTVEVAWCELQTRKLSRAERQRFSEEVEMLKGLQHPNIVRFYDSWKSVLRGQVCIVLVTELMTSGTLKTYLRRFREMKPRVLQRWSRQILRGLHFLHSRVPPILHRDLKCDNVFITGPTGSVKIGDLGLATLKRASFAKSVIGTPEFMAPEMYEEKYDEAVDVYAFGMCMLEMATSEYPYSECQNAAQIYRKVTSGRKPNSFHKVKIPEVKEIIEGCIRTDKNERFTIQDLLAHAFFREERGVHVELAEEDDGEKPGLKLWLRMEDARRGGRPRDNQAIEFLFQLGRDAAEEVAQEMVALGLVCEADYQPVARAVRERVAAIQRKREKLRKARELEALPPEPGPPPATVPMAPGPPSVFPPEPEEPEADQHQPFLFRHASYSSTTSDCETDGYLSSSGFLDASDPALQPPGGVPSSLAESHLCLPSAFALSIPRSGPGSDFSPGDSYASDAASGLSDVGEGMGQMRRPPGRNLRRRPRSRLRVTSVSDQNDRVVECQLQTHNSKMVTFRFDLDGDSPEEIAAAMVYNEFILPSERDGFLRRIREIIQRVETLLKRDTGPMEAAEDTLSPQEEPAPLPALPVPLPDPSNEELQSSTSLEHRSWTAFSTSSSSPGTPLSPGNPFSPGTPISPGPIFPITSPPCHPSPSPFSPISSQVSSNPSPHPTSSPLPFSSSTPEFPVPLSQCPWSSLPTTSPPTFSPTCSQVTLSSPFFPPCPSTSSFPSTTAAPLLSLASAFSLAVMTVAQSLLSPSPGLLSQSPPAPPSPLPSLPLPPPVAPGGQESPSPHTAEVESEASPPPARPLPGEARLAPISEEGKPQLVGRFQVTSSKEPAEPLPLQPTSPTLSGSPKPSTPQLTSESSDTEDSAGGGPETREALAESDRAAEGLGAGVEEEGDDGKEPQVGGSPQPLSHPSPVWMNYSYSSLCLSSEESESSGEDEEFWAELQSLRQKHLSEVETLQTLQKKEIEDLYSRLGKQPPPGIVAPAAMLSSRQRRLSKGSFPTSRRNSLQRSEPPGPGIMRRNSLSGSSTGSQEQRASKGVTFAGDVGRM
Sequence of Mast/stem cell growth factor receptor Kit (Homo sapiens), P10721 [V559D] (P10721 whole entry V559D): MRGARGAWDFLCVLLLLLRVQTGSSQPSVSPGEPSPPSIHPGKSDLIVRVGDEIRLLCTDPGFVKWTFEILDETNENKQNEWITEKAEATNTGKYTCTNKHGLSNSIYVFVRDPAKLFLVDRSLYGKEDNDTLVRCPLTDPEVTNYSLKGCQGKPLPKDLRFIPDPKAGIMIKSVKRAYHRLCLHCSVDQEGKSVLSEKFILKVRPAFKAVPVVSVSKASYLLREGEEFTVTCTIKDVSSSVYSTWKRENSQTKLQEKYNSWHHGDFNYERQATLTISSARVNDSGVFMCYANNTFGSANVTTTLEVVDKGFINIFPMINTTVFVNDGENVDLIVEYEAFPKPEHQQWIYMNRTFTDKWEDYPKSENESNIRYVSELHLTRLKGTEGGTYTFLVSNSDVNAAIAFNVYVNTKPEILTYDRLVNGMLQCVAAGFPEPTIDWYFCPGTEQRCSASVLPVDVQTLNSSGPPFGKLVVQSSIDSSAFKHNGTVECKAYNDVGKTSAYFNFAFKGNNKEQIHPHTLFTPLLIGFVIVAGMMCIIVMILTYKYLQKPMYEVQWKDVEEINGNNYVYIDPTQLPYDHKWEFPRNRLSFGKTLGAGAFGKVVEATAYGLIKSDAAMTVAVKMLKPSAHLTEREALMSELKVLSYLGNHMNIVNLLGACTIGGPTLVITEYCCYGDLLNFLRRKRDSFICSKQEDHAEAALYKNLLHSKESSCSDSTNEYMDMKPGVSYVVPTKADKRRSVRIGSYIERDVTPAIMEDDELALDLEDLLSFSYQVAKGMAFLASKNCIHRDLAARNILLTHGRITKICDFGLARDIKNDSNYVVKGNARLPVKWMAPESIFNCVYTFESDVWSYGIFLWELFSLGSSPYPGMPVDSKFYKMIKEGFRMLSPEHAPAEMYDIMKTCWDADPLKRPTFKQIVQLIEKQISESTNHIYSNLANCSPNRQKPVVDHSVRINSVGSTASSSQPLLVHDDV
Sequence of Serine/threonine-protein kinase 26 (Homo sapiens) (Q9P289 2-416 limits assumed): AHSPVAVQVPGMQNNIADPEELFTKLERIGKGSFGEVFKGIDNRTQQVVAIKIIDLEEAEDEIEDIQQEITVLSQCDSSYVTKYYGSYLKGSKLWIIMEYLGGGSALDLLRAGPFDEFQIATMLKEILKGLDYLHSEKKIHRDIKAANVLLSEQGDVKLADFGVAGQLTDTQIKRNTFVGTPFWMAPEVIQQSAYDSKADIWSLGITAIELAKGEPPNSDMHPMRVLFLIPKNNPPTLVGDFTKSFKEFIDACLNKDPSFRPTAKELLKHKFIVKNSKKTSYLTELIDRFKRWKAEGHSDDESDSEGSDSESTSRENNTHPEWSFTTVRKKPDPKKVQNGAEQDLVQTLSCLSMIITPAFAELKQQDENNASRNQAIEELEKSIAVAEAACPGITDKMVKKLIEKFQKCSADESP

CCc1ccccc1C(=O)Nc1n[nH]c2c(C)c(F)c(C3C(C#N)=C(C)N(C)C(C)=C3C#N)cc12 [BAY-3827]
residual activity [1]: 96%
residual activity [2]: 90%
residual activity [3]: 43%
residual activity [4]: 79%
residual activity [5]: 83%
residual activity [6]: 100%
residual activity [7]: 98%
residual activity [8]: 100%
residual activity [9]: 94%
residual activity [10]: 86%
residual activity [11]: 74%

CC1=C(C#N)C(c2ccc3c(c2)c(NC(=O)c2ccccc2C)nn3C)C(C#N)=C(C)N1 [BAY-974]
residual activity [1]: 91%
residual activity [2]: 99%
residual activity [3]: 69%
residual activity [4]: 83%
residual activity [5]: 100%
residual activity [6]: 100%
residual activity [7]: 100%
residual activity [8]: 100%
residual activity [9]: 95%
residual activity [10]: 88%
residual activity [11]: 82%
